Source: patent US10479795B2 (Incyte Corporation, priority 2016, dated 2019)
pIC50: −log10 of the molar value. Where a name gives a salt, the structure may show the parent alone. Read-outs that look alike come from different tables or passages of the source.

Experiments:
[1] = biological target: PI3Kγ (p110γ) Recombinant Human Protein (Homo sapiens (Human), UniProt P48736); experiment: PI3K-γ Scintillation Proximity Assay; type: biochemical; conditions: read-out: PI3Kγ IC50
How it was run: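 Recombinant human p110γ assayed at room temperature in 20 mM MOPS pH 6.7, 10 mM MgCl2, 5 mM DTT, 0.03% CHAPS, 2% DMSO, with 20 μM PIP2 and 2 μM ATP plus [γ-33P]ATP. Product captured on WGA SPA beads overnight and counted; IC50 fitted from % of solvent-control activity versus log inhibitor concentration.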

[2] = biological target: PI3Kδ (p110δ/p85α) Recombinant Human Protein (Homo sapiens (Human), UniProt O00329); experiment: PI3Kδ Scintillation Proximity Assay; type: biochemical
How it was run: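 Recombinant human p110δ/p85α (3.4 nM) phosphorylates 20 μM di-octanoyl PIP2 using 2 μM ATP spiked with [γ-33P]ATP, 120 min, room temperature, pH 6.7, 2% DMSO. Product measured by scintillation proximity; IC50 from dose-response fit.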

[3] = system: Phosphorylated Ribosomal Protein S6 (RPS6); experiment: THP-1 RPS6 ELISA Assay; type: cell-based, Human; conditions: THP-1 cells, read-out: PI3Kγ_THP1_RPS6_ELISA IC50
How it was run: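 Serum-starved THP-1 cells were preincubated with a concentration range of compound for 2 h at 37 °C, then stimulated with 10 nM MCP-1 for 15 min. Phospho-RPS6 in lysates was quantified by ELISA at 450 nm. IC50 came from percent inhibition versus log inhibitor concentration.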

Sequence of PI3Kγ (p110γ) Recombinant Human Protein (P48736 whole entry): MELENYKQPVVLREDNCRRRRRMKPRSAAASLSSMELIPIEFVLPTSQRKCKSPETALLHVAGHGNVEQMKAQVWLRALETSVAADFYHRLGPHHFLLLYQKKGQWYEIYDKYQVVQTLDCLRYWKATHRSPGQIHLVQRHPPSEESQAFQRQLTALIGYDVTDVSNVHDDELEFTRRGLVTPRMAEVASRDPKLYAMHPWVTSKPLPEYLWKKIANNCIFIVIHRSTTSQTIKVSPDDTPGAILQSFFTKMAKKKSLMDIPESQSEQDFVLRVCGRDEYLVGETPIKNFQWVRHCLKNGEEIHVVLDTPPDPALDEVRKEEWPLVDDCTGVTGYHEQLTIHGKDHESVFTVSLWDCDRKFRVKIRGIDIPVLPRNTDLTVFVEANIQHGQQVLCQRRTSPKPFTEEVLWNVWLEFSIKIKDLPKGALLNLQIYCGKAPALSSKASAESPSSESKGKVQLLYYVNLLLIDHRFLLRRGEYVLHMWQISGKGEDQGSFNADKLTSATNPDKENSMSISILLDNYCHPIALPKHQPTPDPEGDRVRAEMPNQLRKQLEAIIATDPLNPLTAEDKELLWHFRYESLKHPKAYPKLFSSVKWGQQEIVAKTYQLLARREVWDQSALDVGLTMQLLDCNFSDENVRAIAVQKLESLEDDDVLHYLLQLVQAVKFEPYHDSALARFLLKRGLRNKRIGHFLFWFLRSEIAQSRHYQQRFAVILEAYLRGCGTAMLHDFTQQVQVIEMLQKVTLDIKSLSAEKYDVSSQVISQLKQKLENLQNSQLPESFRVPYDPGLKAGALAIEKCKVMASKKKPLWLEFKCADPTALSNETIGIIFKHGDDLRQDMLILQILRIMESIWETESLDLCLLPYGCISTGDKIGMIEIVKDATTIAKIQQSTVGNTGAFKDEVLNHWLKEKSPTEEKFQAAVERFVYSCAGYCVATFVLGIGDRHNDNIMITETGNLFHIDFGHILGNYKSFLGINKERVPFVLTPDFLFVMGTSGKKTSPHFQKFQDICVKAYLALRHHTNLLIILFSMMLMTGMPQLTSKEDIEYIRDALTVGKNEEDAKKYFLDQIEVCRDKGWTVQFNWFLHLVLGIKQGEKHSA
Sequence of PI3Kδ (p110δ/p85α) Recombinant Human Protein (O00329 whole entry): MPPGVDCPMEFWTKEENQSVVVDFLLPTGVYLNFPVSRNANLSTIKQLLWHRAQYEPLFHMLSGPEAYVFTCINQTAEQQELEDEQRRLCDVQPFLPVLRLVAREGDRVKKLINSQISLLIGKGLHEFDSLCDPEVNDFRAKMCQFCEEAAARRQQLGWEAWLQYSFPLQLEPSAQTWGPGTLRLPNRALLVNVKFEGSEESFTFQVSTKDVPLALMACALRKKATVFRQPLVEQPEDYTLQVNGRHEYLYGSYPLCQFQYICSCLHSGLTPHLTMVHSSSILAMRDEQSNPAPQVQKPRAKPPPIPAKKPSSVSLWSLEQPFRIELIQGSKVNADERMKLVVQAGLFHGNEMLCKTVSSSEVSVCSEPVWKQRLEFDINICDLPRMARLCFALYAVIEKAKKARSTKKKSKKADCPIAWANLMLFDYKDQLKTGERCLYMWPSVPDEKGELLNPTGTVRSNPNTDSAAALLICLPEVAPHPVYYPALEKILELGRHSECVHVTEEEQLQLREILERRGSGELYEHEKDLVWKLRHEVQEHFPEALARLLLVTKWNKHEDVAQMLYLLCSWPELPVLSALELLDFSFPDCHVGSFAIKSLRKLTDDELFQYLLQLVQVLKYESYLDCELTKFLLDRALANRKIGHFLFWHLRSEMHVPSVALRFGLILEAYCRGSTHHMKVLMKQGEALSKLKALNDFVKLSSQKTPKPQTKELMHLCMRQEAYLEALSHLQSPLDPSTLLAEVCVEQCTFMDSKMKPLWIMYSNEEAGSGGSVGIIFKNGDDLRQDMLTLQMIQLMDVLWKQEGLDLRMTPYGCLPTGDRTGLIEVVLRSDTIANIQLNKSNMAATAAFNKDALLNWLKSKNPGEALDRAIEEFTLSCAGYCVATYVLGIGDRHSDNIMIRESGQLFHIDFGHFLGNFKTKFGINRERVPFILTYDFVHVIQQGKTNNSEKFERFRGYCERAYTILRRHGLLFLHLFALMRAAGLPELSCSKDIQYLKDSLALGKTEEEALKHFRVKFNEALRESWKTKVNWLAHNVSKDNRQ
Sequence of PI3Kδ (p110δ/p85α) Recombinant Human Protein (P27986 whole entry partner): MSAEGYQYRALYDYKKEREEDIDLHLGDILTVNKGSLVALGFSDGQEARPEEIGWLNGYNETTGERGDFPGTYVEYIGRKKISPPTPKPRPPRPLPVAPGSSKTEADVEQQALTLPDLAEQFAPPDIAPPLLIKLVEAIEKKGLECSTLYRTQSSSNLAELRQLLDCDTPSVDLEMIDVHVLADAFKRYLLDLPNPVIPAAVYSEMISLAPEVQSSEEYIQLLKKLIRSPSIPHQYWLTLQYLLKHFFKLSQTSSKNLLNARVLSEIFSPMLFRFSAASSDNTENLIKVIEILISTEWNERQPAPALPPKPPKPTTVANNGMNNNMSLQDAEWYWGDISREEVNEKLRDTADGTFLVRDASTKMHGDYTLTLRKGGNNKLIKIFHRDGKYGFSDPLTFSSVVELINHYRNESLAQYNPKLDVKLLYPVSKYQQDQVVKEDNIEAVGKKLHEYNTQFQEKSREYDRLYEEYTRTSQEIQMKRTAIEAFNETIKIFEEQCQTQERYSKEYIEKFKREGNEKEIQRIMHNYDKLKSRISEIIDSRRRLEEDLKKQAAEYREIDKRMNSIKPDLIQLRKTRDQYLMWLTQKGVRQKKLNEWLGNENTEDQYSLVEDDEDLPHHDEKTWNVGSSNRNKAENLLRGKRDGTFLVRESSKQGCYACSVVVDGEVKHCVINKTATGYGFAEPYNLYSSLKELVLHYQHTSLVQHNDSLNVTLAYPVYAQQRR

Cc1ccc(S(=O)(=O)N[C@H]2C[C@H](CO)C2)cc1-c1cnc2c(N)ncnn12 [Example 60, 3-(4-Aminoimidazo[1,2-f][1,2,4]triazin-7-yl)-N-[trans-3-(hydroxymethyl)cyclobutyl]-4-methylbenzenesulfonamide]
pIC50 [1]: > 7.00
pIC50 [2]: 6.30 to 7.00
pIC50 [3]: 6.30 to 7.00

Cc1ccc(S(=O)(=O)N[C@H]2C[C@@H](CO)C2)cc1-c1cnc2c(N)ncnn12 [Example 61, 3-(4-Aminoimidazo[2,1-f][1,2,4]triazin-7-yl)-N-[cis-3-(hydroxymethyl)cyclobutyl]-4-methylbenzenesulfonamide]
pIC50 [1]: > 7.00
pIC50 [2]: 5.70 to 6.30
pIC50 ([3]; Homo sapiens): 6.00 to 6.30

Cc1ccc(S(=O)(=O)N[C@H]2CC[C@H](CO)OC2)cc1-c1cnc2c(N)ncnn12 [Example 62, 3-(4-Aminoimidazo[2,1-f][1,2,4]triazin-7-yl)-N-[(3S,6R)-6-(hydroxymethyl)tetrahydro-2H-pyran-3-yl]-4-methylbenzenesulfonamide]
pIC50 [1]: > 7.00
pIC50 [2]: 6.30 to 7.00
pIC50 ([3]; Homo sapiens): 6.30 to 7.00

Cc1ccc(S(=O)(=O)N[C@H]2CC[C@@H](O)CC2)cc1-c1cnc2c(N)ncnn12 [Example 63, 3-(4-Aminoimidazo[2,1-f][1,2,4]triazin-7-yl)-N-(cis-4-hydroxycyclohexyl)-4-methylbenzenesulfonamide]
pIC50 [1]: > 7.00
pIC50 [2]: 6.30 to 7.00
pIC50 ([3]; Homo sapiens): 6.30 to 7.00

Cc1ccc(S(=O)(=O)NC2CC2)cc1-c1cnc2c(N)ncnn12 [Example 64, 3-(4-Aminoimidazo[2,1-f][1,2,4]triazin-7-yl)-N-cyclopropyl-4-methylbenzenesulfonamide]
pIC50 [1]: > 7.00
pIC50 [2]: < 5.70
pIC50 ([3]; Homo sapiens): < 6.00

Cc1ccc(S(=O)(=O)NCCCO)cc1-c1cnc2c(N)ncnn12 [Example 65, 3-(4-Aminoimidazo[2,1-f][1,2,4]triazin-7-yl)-N-(3-hydroxypropyl)-4-methylbenzenesulfonamide]
pIC50 [1]: > 7.00
pIC50 [2]: < 5.70
pIC50 ([3]; Homo sapiens): < 6.00

Cc1ccc(S(=O)(=O)NC2CCOCC2)cc1-c1cnc2c(N)ncnn12 [Example 68, 3-(4-Aminoimidazo[2,1-f][1,2,4]triazin-7-yl)-4-methyl-N-(tetrahydro-2H-pyrazn-4-yl)benzenesulfonamide]
pIC50 [1]: > 7.00
pIC50 [2]: 5.70 to 6.30
pIC50 [3]: 6.00 to 6.30

Cc1ccc(S(=O)(=O)N(C)[C@H]2CC[C@H](O)CC2)cc1-c1cnc2c(N)ncnn12 [Example 69, 3-(4-Aminoimidazo[2,1-f][1,2,4]triazin-7-yl)-N-(trans-4-hydroxycyclohexyl)-N,4-dimethylbenzenesulfonamide]
pIC50 [1]: > 7.00
pIC50 [2]: 5.70 to 6.30
pIC50 ([3]; Homo sapiens): 6.30 to 7.00

CO[C@H]1CC[C@H](NS(=O)(=O)c2ccc(C)c(-c3cnc4c(N)ncnn34)c2)CC1 [Example 70, 3-(4-Aminoimidazo[2,1-f][1,2,4]triazin-7-yl)-N-(trans-4-methoxycyclohexyl)-4-methylbenzenesulfonamide]
pIC50 [1]: > 7.00
pIC50 [2]: 5.70 to 6.30
pIC50 ([3]; Homo sapiens): < 6.00

Cc1ccc(S(=O)(=O)N[C@H]2C[C@H](O)C2)cc1-c1cnc2c(N)ncnn12 [Example 71, 3-(4-Aminoimidazo[2,1-f][1,2,4]triazin-7-yl)-N-(trans-3-hydroxycyclobutyl)-4-methylbenzenesulfonamide]
pIC50 [1]: > 7.00
pIC50 [2]: < 5.70
pIC50 ([3]; Homo sapiens): 6.30 to 7.00

Cc1ccc(S(=O)(=O)N[C@H]2CC[C@H](NC(=O)OC(C)(C)C)CC2)cc1-c1cnc2c(N)ncnn12 [Example 72, tert-Butyl [trans-4-({[3-(4-aminoimidazo[2,1-f][1,2,4]triazin-7-yl)-4-methylphenyl]sulfonyl}amino)cyclohexyl]carbamate]
pIC50 [1]: > 7.00
pIC50 [2]: < 5.70
pIC50 ([3]; Homo sapiens): < 6.00

Cc1ccc(S(=O)(=O)N[C@H]2CC[C@H](N)CC2)cc1-c1cnc2c(N)ncnn12 [Example 73, bis-hydrochloride]
pIC50 [1]: > 7.00
pIC50 [2]: 5.70 to 6.30
pIC50 ([3]; Homo sapiens): < 6.00

CC(=O)N[C@H]1CC[C@H](NS(=O)(=O)c2ccc(C)c(-c3cnc4c(N)ncnn34)c2)CC1 [Example 74, N-[trans-4-({[3-(4-Aminoimidazo[2,1-f][1,2,4]triazin-7-yl)-4-methylphenyl]sulfonyl}amino)cyclohexyl]acetamide]
pIC50 [1]: > 7.00
pIC50 [2]: 5.70 to 6.30
pIC50 ([3]; Homo sapiens): < 6.00

Cc1cc(-c2cn3c(-c4cc(S(=O)(=O)N[C@H]5CC[C@H](O)CC5)ccc4C)cnc3c(N)n2)on1 [Example 75, 3-[8-Amino-6-(3-methylisoxazol-5-yl)imidazo[1,2-a]pyrazin-3-yl]-N-(trans-4-hydroxycyclohexyl)-4-methylbenzenesulfonamide]
pIC50 [1]: > 7.00
pIC50 [2]: > 7.00
pIC50 ([3]; Homo sapiens): 6.30 to 7.00

Cc1ccc(S(=O)(=O)N[C@H]2CC[C@H](O)CC2)cc1-c1cnc2c(N)nc(-c3cnn(CC(F)(F)F)c3)cn12 [Example 76, 3-{8-amino-6-[1-(2,2,2-trifluoroethyl)-1H-pyrazol-4-yl]imidazo[1,2-a]pyrazin-3-yl}-N-(trans-4-hydroxycyclohexyl)-4-methylbenzenesulfonamide]
pIC50 [1]: > 7.00
pIC50 [2]: 6.30 to 7.00
pIC50 ([3]; Homo sapiens): 6.30 to 7.00

Cc1ccc(S(=O)(=O)N[C@H]2CC[C@H](O)CC2)cc1-c1cnc2c(N)nc(-c3c(C)noc3C)cn12 [Example 77, 3-[8-amino-6-(3,5-dimethylisoxazol-4-yl)imidazo[1,2-a]pyrazin-3-yl]-N-(trans-4-hydroxycyclohexyl)-4-methylbenzenesulfonamide]
pIC50 [1]: > 7.00
pIC50 [2]: 6.30 to 7.00
pIC50 ([3]; Homo sapiens): 6.30 to 7.00

Cc1ccc(S(=O)(=O)N[C@H]2CC[C@H](O)CC2)cc1-c1cnc2c(N)nc(-c3cnn(C(C)(C)C#N)c3)cn12 [Example 78, 3-{8-amino-6-[1-(1-cyano-1-methylethyl)-1H-pyrazol-4-yl]imidazo[1,2-a]pyrazin-3-yl}-N-(trans-4-hydroxycyclohexyl)-4-methylbenzenesulfonamide]
pIC50 [1]: > 7.00
pIC50 [2]: 6.30 to 7.00
pIC50 ([3]; Homo sapiens): 6.00 to 6.30

Cc1ccc(S(=O)(=O)N[C@H]2CC[C@H](O)CC2)cc1-c1cnc2c(N)nc(-c3ccc(C(=O)N(C)C)cc3F)cn12 [Example 79, 4-[8-Amino-3-(5-{[(trans-4-hydroxycyclohexyl)amino]sulfonyl}-2-methylphenyl)imidazo[1,2-a]pyrazin-6-yl]-3-fluoro-N,N-dimethylbenzamide trifluoroacetate]
pIC50 [1]: > 7.00
pIC50 [2]: > 7.00
pIC50 ([3]; Homo sapiens): 6.30 to 7.00

Cc1ccc(S(=O)(=O)N[C@H]2CC[C@H](O)CC2)cc1-c1cnc2c(N)nc(-c3cc(C(F)(F)F)nn3C)cn12 [Example 80, 3-{8-Amino-6-[1-methyl-3-(trifluoromethyl)-1H-pyrazol-5-yl]imidazo[1,2-a]pyrazin-3-yl}-N-(trans-4-hydroxycyclohexyl)-4-methylbenzenesulfonamide]
pIC50 [1]: > 7.00
pIC50 [2]: 6.30 to 7.00
pIC50 ([3]; Homo sapiens): 6.30 to 7.00

Cc1ccc(S(=O)(=O)N[C@H]2CC[C@H](O)CC2)cc1-c1cnc2c(N)nc(-c3ccncc3F)cn12 [Example 81, 3-[8-Amino-6-(3-fluoropyridin-4-yl)imidazo[1,2-a]pyrazin-3-yl]-N-(trans-4-hydroxycyclohexyl)-4-methylbenzenesulfonamide]
pIC50 [1]: > 7.00
pIC50 [2]: > 7.00
pIC50 ([3]; Homo sapiens): > 7.00

Cc1ccc(S(=O)(=O)N[C@H]2CC[C@H](O)CC2)cc1-c1cnc2c(N)nc(-c3ccc(C(C)O)cc3F)cn12 (stereo partly drawn) [Example 82, 3-(8-Amino-6-(2-fluoro-4-(1-hydroxyethyl)phenyl)imidazo[1,2-a]pyrazin-3-yl)-N-(trans-4-hydroxycyclohexyl)-4-methylbenzenesulfonamide]
pIC50 [1]: > 7.00
pIC50 [2]: > 7.00
pIC50 ([3]; Homo sapiens): > 7.00

COc1cc(C)c(-c2cnc3c(N)nccn23)cc1S(=O)(=O)N[C@H]1CC[C@H](O)CC1 [Example 83, 5-(8-aminoimidazo[1,2-a]pyrazin-3-yl)-N-(trans-4-hydroxycyclohexyl)-2-methoxy-4-methylbenzenesulfonamide]
pIC50 [1]: 6.30 to 7.00
pIC50 [2]: > 7.00
pIC50 ([3]; Homo sapiens): < 6.00

Cc1ccc(S(=O)(=O)NC2CCC(F)(F)CC2)cc1-c1cnc2c(N)nccn12 [Example 84, 3-(8-amionimidazo[1,2-a]pyrazin-3-yl)-N-(4,4-difluorocyclohexyl)-4-methylbenzenesulfonamide]
pIC50 [1]: > 7.00
pIC50 [2]: 5.70 to 6.30
pIC50 [3]: < 6.00

Cc1ccc(S(=O)(=O)NC2CCC(C)(O)CC2)cc1-c1cnc2c(N)nccn12 (stereo not drawn) [Example 85, 3-(8-aminoimidazo[1,2-a]pyrazin-3-yl)-N-(trans-4-hydroxy-4-methylcyclohexyl)-4-methylbenzenesulfonamide]
pIC50 [1]: > 7.00
pIC50 [2]: 5.70 to 6.30
pIC50 [3]: 6.30 to 7.00

Cc1ccc(S(=O)(=O)NCC2CCN(C(=O)C3CC3)CC2)cc1-c1cnc2c(N)nccn12 [Example 86, 3-(8-aminoimidazo[1,2-a]pyrazin-3-yl)-N-((1-(cyclopropanecarbonyl)piperidin-4-yl)methyl)-4-methylbenzenesulfonamide]
pIC50 [1]: > 7.00
pIC50 [2]: 5.70 to 6.30
pIC50 [3]: < 6.00
